In the NIST ThermoML archive (doi:10.1021/je300630u):
± gives the expanded uncertainty stated by the source.

What was measured:
[1] = refractive index (other wavelength) (dimensionless); conditions: 101 kPa, Liquid, Wavelength=632.8 nm, Standard Abbe refractometry
[2] = refractive index (other wavelength) (dimensionless); xn = mol fraction of the nth substance listed; conditions: 295.84 K, 101.3 kPa, Liquid, Wavelength=632.8 nm, Standard Abbe refractometry

N#Cc1ccccc1 [benzonitrile]
[1]
Conditions | refractive index
293.37 K | 1.5252 ± 0.0004
293.99 K | 1.5249 ± 0.0004
294.53 K | 1.5247 ± 0.0004
295.09 K | 1.5243 ± 0.0004
295.66 K | 1.5241 ± 0.0004
295.84 K | 1.5239 ± 0.0004
296.11 K | 1.5238 ± 0.0004
296.8 K | 1.5236 ± 0.0004
297.15 K | 1.5233 ± 0.0004
297.91 K | 1.523 ± 0.0004
298.2 K | 1.5228 ± 0.0004
298.8 K | 1.5225 ± 0.0004
298.83 K | 1.5226 ± 0.0004
299.26 K | 1.5223 ± 0.0004
300.06 K | 1.5219 ± 0.0004
300.12 K | 1.5219 ± 0.0004
300.31 K | 1.5218 ± 0.0004
301.13 K | 1.5214 ± 0.0004
301.23 K | 1.5214 ± 0.0004
301.35 K | 1.5213 ± 0.0004
302.26 K | 1.5209 ± 0.0004
302.31 K | 1.5209 ± 0.0004
302.42 K | 1.5208 ± 0.0004
303.41 K | 1.5203 ± 0.0004
304.49 K | 1.5198 ± 0.0004
305.64 K | 1.5192 ± 0.0004
306.89 K | 1.5186 ± 0.0004
307.88 K | 1.5181 ± 0.0004

N#Cc1ccccc1 [benzonitrile] + CCCCCCCCCCCCC
[2]
Conditions | refractive index
x1 = 0.1148 | 1.428 ± 0.0004
x1 = 0.2007 | 1.4323 ± 0.0004
x1 = 0.3192 | 1.439 ± 0.0004
x1 = 0.3935 | 1.4443 ± 0.0004
x1 = 0.5 | 1.4525 ± 0.0004
x1 = 0.6113 | 1.4629 ± 0.0004
x1 = 0.7078 | 1.4738 ± 0.0004
x1 = 0.8007 | 1.4865 ± 0.0004
x1 = 0.9009 | 1.5032 ± 0.0004
x1 = 1 | 1.5239 ± 0.0004

CCCCCCCCCCCCC [tridecane]
[1]
Conditions | refractive index
293.2 K | 1.4244 ± 0.0004
294.26 K | 1.4239 ± 0.0004
295.29 K | 1.4234 ± 0.0004
295.84 K | 1.4231 ± 0.0004
296.33 K | 1.423 ± 0.0004
297.35 K | 1.4225 ± 0.0004
298.37 K | 1.4221 ± 0.0004
299.42 K | 1.4216 ± 0.0004
300.39 K | 1.4212 ± 0.0004
301.47 K | 1.4207 ± 0.0004

CCCCCCCCCCCCC [tridecane] + N#Cc1ccccc1
Conditions | refractive index
[2], x2 = 0 | 1.4231 ± 0.0004
